Measured values from patent publication US11351218B2, “Composition for preventing or treating glioblastoma comprising Platycodon grandiflorum A. De Candolle, Scutellaria baicalensis, Phellodendron amurense Ruprecht or Rubus coreanus” (University-Industry Cooperation Group of Kyung Hee …, priority 2019, dated 2022).

Tests used:
[1] = system: A549, H358, MCF7, HT29 and HepG2 cells; assay: Immunoblot of LC3B and SQSTM1 in several cancer cell lines; assay type: cell-based; conditions: 24 hours, dose-dependent, all cancer cells tested
Protocol: After treatment with indicated concentrations of PD or PG for 24 hours, the protein levels of LC3B and SQSTM1 were detected by immunoblot analysis in several cancer cell lines including A549 and H358 (lung cancer), MCF7 (breast cancer), HT29 (colon cancer), and HepG2 (liver cancer). GAPDH was used as a loading control.
(§1) Cells treated with the concentrations and materials described in FIGS. 1-3B, 7, 8, 10, 13, 16, 18, and 20 were lysed in buffer containing 20 mM Tris-HCl (pH 7.5), 150 mM NaCl, 1 mM EDTA, 1 mM Na2EDTA, 1 mM EGTA, 1% NP-40, 1% sodium deoxycholate, 1 mM Na3VO4, 1 mM MPI, 1 mM PMSF, and PI cocktails for 15 to 20 minutes on ice. Cell lysates were separated by SDS-PAGE and transferred to nitrocellulose membranes. Immunodetection was performed with the following primary antibodies: rabbit anti-LC3B, rabbit anti-cathepsin B, rabbit-anti GAPDH (Cell Signaling Technology, Danvers, Mass.), mouse anti-SQSTM1/p62, and goat anti-cathepsin D (Santa CruzKPL, Gaithersburg, Md., USA) were incubated at room temperature for 1 hour. The protein bands were detected with ECL western Blotting Substrate (Thermo Fisher Scientific, Waltham, Mass., USA).
In these studies, they were carried out to examine the accumulation of LC3B-II without checking p62 levels upon PD treatment and conclusions were drawn that PD acts as an inducer of autophagic cell death in these cancer cells. […]

[2] = system: normal astrocytes; assay: BODIPY FL LDL uptake assay, normal astrocytes; assay type: cell-based, human; conditions: PD 10 μM or U18 1 μM, 24 hours
Protocol: Cells were treated with DMSO, PD (10 μM), or U18 (1 μM) for 24 hours and subsequently loaded with BODIPY™ FL LDL. BODIPY-LDL uptake was visualized by confocal microscopy. Nuclei were stained with DAPI (blue). Quantification shown on the right graph represents a relative fold change from three independent experiments±SD.
Cells seeded on coverslips were treated with the materials and then the culture medium was replaced with BODIPY™ FL LDL (Thermo Fisher Scientific) at a working concentration of 5 μg/mL in a medium. The cells were additionally incubated at 37° C. for 1 hour. The degree of LDL uptake was measured using a Zeiss laser confocal microscope.
Based on the previous study results of the present inventors that PD increases cell surface LDLR expression and accumulate cholesterol within lysosomes, whether PD can increase the uptake of exogenous LDL was examined Cells pretreated with PD or U18666A were incubated with BODIPY FL-labeled LDL particles for 1 hour and the LDL uptake was observed by a confocal microscope. Upon analysis of these cells, it was observed that PD caused about a 6-fold increase in LDL uptake and it was a level similar to that detected in the U18666A-treated cells.

[3] = system: U87MG and U373MG cells; assay: Cell morphology (vacuole formation) under optical microscope, GBM cells; assay type: cell-based, human; conditions: 10 μM PD, 24 hours
Protocol: (§2) FIGS. 6A and 6B show the results that PD induces a decrease in cell viability and vacuole formation. […] Data shown represent the means of quintuplicate measurements which were repeated three times. The results are presented as a percentage of control (means±SD).
(§3) Inhibition of autophagy has been reported to cause cancer cell death. Therefore, the cytotoxic effects of PD on U87MG, U373MG, and normal astrocytes were examined. After treating these cells with various doses of PD for 48 hours, their cell viability was analyzed by WST1 assays. […] As can be confirmed in FIG. 6B, morphological changes were also visualized by an optical microscope after exposure of GBM cells to 10 μM PD for 24 hours.

[4] = system: PARP, caspase-3, BCL-2 and BAX; assay: Immunoblot of apoptosis markers (PARP, caspase-3, BCL-2, BAX) in GBM cells; assay type: cell-based, human; conditions: PD, 24 hours
Protocol: FIGS. 7A and 7B show the results that PD induces non-apoptotic cell death. […] GAPDH was used as a loading control. […] Data shown represent the means of quintuplicate measurements which were repeated three times. The results are presented as a percentage of control (means±SD).
as §1
Therefore, whether PD-mediated autophagy inhibition promotes apoptosis in GBM cells was examined by western blot analysis. Activation of caspase-3 and cleavage of its substrate, PARP, are hallmarks of apoptosis. […]

[5] = system: normal human astrocytes; assay: WST1 cell viability assay, normal astrocytes; assay type: cell-based; conditions: normal human astrocytes vs GBM cells, 48 hours
Protocol: as §2
Cell cytotoxicity was assessed by WST1 assay. U87 and U373 cells were each seeded in a 96-well plate (5×10^3 cells/well) and treated with different concentrations of platycodin D (PD). Then, cells were incubated with a WST1 reagent (Dogen, Seoul, Korea) for 2 hours before reading the plate. Absorbance was measured at 450 nm using an ELISA reader (Versa Max, Molecular Devices, Sunnyvale, Calif., USA).
as §3

[6] = system: U87MG and U373MG cells; assay: DQ Red-BSA trafficking assay (lysosomal proteolytic activity) in GBM cells; assay type: cell-based, human; conditions: PD 10 μM or BafA1 (100 μM), 24 hours
Protocol: Cells were incubated with DMSO, PD (10 μM), or BafA1 (100 μM) for 24 hours, and then the cells were treated with DQ-BSA ([…]) for 30 minutes. Data shown are representative images of each sample. The fluorescence intensity of DQ-BSA was quantified with ImageJ software. More than 100 cells were counted in each condition and the number of puncta per cells is presented as means±SD from three independent experiments.
Cells were placed on coverslips prior to treatment with the materials and continuously loaded with DQ Red-BSA (Invitrogen) at a working concentration of 10 μg/mL in a culture medium at 37° C. for 30 minutes. The cells were fixed in 4% PFA and then subjected to DAPI staining. The images were examined under a Zeiss laser confocal microscope. The number of DQ Red-BSA spots was quantified using ImageJ software.
To confirm the lysosomal activity in PD-treated GBM cells, the DQ-BSA assay was performed to assess lysosomal protein degradation. In DQ-BSA, which is a red BODIPY dye conjugated to bovine serum albumin (BSA), the BSA is so heavily conjugated that the red fluorescence is self-quenched. Upon cleavage of the DQ-BSA by proteolytic enzymes in lysosomal compartments, this quenching is relieved, generating red fluorescence. Thus, DQ-BSA is a useful tool to visualize a lysosomal proteolytic activity.

Question: What does the source list for C[C@@H]1O[C@@H](O[C@H]2[C@H](OC(=O)[C@]34CCC(C)(C)C[C@H]3C3=CC[C@@H]5[C@@]6(C)C[C@H](O)[C@H](O[C@@H]7O[C@H](CO)[C@@H](O)[C@H](O)[C@H]7O)C(CO)(CO)[C@@H]6CC[C@@]5(C)[C@]3(C)C[C@H]4O)OC[C@H](O)[C@@H]2O)[C@H](O)[C@H](O)[C@H]1O[C@@H]1OC[C@@H](O)[C@H](O[C@@H]2OC[C@](O)(CO)[C@H]2O)[C@H]1O [PD, platycodin D]?
Answer: level of p62 together with LC3-II [1]: enhanced level; LDL uptake [2]: less effective; cell morphology (cytoplasmic vacuoles) [3]: exhibited cytoplasmic vacuoles; caspase-3 activation and PARP cleavage [4]: no significant induction; expressions of Bcl2 and BAX [4]: not changed; PD-mediated reduction in cell viability [5]: less effective; DQ-BSA red fluorescence vs DMSO [6]: significant reduction
